# Read-outs that look alike come from different tables or passages of the source.
# Key:
# [1] = system: HCV replicon RNA in Huh 11-7 cell line; assay: Cell-Based Replicon Assay; conditions: Hepatitis C virus, 96 h, read-out: EC50 in the Cell-Based Replicon Assay
# Description: Quantification of HCV replicon RNA (HCV Cell Based Assay) is accomplished using the Huh 11-7 cell line (Lohmann, et al Science 285:110-113, 1999). Cells are seeded at 4×10^3 cells/well in 96 well plates and fed media containing DMEM (high glucose), 10% fetal calf serum, penicillin-streptomycin and non-essential amino acids. Cells are incubated in a 7.5% CO2 incubator at 37° C. At the end of the incubation period, total RNA is extracted and purified from cells using Ambion RNAqueous 96 Kit (Catalog No. AM1812). To amplify the HCV RNA so that sufficient material can be detected by an HCV specific probe (below), primers specific for HCV (below) mediate both the reverse transcription of the HCV RNA and the amplification of the cDNA by polymerase chain reaction (PCR) using the TaqMan One-Step RT-PCR Master Mix Kit (Applied Biosystems catalog no. 4309169). The nucleotide sequences of the RT-PCR primers, which are located in the NS5B region of the HCV genome, are the following:
# Detection of the RT-PCR product is accomplished using the Applied Biosystems (ABI) Prism 7500 Sequence Detection System (SDS) that detects the fluorescence that is emitted when the probe, which is labeled with a fluorescence reporter dye and a quencher dye, is degraded during the PCR reaction. The increase in the amount of fluorescence is measured during each cycle of PCR and reflects the increasing amount of RT-PCR product. Specifically, quantification is based on the threshold cycle, where the amplification plot crosses a defined fluorescence threshold. […] The data is analyzed using the ABI SDS program version 1.7. […]
# The RT-PCR product was detected using the following labeled probe: […]
# To normalize the data to an internal control molecule within the cellular RNA, RT-PCR is performed on the cellular messenger RNA glyceraldehyde-3-phosphate dehydrogenase (GAPDH). […] GAPDH RT-PCR is performed on the same RNA sample from which the HCV copy number is determined. […] The ratio of HCV/GAPDH RNA is used to calculate the activity of compounds evaluated for inhibition of HCV RNA replication. […]
# [2] = molecular target: T1, full-length NS3 HCV protease 1b tethered with NS4A cofactor (Hepatitis C virus genotype 1b, UniProt Q9WMX2); assay: NS3/NS4a Protease Enzyme Assay; format: biochemical
# T1 construct: full-length NS3 HCV protease 1b tethered with NS4A cofactor; NS4A cofactor (tethered, fused to NS3)
# T1 sequence (Q9WMX2 1013-1657, looked up, natural form): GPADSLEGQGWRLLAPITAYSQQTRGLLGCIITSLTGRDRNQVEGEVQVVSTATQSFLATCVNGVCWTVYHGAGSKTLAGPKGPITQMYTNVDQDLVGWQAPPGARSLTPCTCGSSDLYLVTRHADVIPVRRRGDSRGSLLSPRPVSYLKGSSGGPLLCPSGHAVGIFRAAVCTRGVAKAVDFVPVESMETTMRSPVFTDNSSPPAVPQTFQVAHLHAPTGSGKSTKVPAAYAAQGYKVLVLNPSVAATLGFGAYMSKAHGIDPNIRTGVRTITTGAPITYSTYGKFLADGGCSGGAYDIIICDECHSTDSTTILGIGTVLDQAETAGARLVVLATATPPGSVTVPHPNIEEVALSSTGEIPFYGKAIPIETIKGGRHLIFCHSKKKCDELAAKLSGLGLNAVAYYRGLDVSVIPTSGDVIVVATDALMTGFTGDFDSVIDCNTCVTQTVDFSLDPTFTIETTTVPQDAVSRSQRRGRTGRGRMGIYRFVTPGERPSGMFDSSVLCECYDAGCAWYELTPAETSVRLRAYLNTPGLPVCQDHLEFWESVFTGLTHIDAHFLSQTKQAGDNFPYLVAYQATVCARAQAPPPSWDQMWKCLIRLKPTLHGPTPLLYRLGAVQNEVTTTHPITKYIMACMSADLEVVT
# Description: HCV protease activity and inhibition is assayed using an internally quenched fluorogenic substrate. A DABCYL and an EDANS group are attached to opposite ends of a short peptide. Quenching of the EDANS fluorescence by the DABCYL group is relieved upon proteolytic cleavage. Fluorescence is measured with a Molecular Devices Fluoromax (or equivalent) using an excitation wavelength of 355 nm and an emission wavelength of 485 nm.
# The assay is run in Corning white half-area 96-well plates (VWR 29444-312 [Corning 3693]) with full-length NS3 HCV protease 1b tethered with NS4A cofactor (final enzyme concentration 1 to 15 nM). The assay buffer is complemented with 10 μM NS4A cofactor Pep 4A (Anaspec 25336 or in-house, MW 1424.8). RET S1 (Ac-Asp-Glu-Asp(EDANS)-Glu-Glu-Abu-[COO]Ala-Ser-Lys-(DABCYL)-NH2, AnaSpec 22991, MW 1548.6) is used as the fluorogenic peptide substrate. The assay buffer contains 50 mM Hepes at pH 7.5, 30 mM NaCl and 10 mM BME. The enzyme reaction is followed over a 30 minutes time course at room temperature in the absence and presence of inhibitors.
# The peptide inhibitors HCV Inh 1 (Anaspec 25345, MW 796.8) Ac-Asp-Glu-Met-Glu-Glu-Cys-OH, [−20° C.] and HCV Inh 2 (Anaspec 25346, MW 913.1) Ac-Asp-Glu-Dif-Cha-Cys-OH, are used as reference compounds.
# IC50 values are calculated using XLFit in ActivityBase (IDBS) using equation 205: y=A+((B−A)/(1+((C/x)^D))).
# [3] = Huh 11-7 cells, 4 days, HCV/GAPDH RNA ratio
SMILES,EC50 [1],IC50 [2],"EC50 [1, 3]"
COc1c(-c2cccc3ccccc23)cnn([C@@H]2C[C@H]3C(=O)N[C@]4(C(=O)NS(=O)(=O)C5CC5)C[C@H]4/C=C\CCCCC[C@H](NC(=O)OC(C)(C)C)C(=O)N3C2)c1=O [Example 30],< 0.2 nM,0.1 nM,–
COc1c(-c2cccc3ccccc23)cnn(C2CC3C(=O)NC4(C(=O)NS(=O)(=O)C5CC5)CC4C=CCCCCCC(NC(=O)OC4CCCC4)C(=O)N3C2)c1=O (stereo not drawn) [Example 32],–,0.4 nM,< 0.2 nM
COc1c(-c2cccc3ccccc23)cnn(C2CC3C(=O)NC4(C(=O)NS(=O)(=O)C5CC5)CC4C=CCCCCCC(NC(=O)c4cccs4)C(=O)N3C2)c1=O (stereo not drawn) [Example 34],–,0.2 nM,< 0.2 nM

# Reference: patent US7718612B2, “Pyridazinonyl macrocyclic hepatitis C serine protease inhibitors” (Enanta Pharmaceuticals, Inc., priority 2006, dated 2010)
